Test results: article PMC5053573, “Structure-Based Design of Tetrahydroisoquinoline-7-carboxamides as Selective Discoidin Domain Receptor 1 (DDR1) Inhibitors” (Journal of Medicinal Chemistry, 2016)

Tests used:
Assay in all cases: biochemical
Settings in all cases: read-out: %Ctrl @ 1000nM
[1] = target: T1, JNK1 (Homo sapiens, UniProt P45983)
T1 construct: gene MAPK8

[2] = target: DDR2 (Homo sapiens, UniProt Q16832)
[3] = target: ERBB3 (Homo sapiens, UniProt P21860)
[4] = target: T2, CDC2L2 (Homo sapiens, UniProt Q9UQ88)
T2 construct: gene CDK11A

[5] = target: T3, MLCK (Homo sapiens, UniProt Q32MK0)
T3 construct: gene MYLK3

[6] = target: CAMKK2 (Homo sapiens, UniProt Q96RR4)
[7] = target: SGK3 (Homo sapiens, UniProt Q96BR1)
[8] = target: KIT(D816V) (Homo sapiens, UniProt P10721, D816V)
[9] = target: FRK (Homo sapiens, UniProt P42685)
[10] = target: LATS2 (Homo sapiens, UniProt Q9NRM7)
[11] = target: RIOK2 (Homo sapiens, UniProt Q9BVS4)
[12] = target: CAMK1D (Homo sapiens, UniProt Q8IU85)
[13] = target: TBK1 (Homo sapiens, UniProt Q9UHD2)
[14] = target: ABL1(M351T)-phosphorylated (Homo sapiens, UniProt P00519, M351T)
[15] = target: JAK3(JH1domain-catalytic) (Homo sapiens, UniProt P52333)
JAK3(JH1domain-catalytic), sequence (P52333 whole entry): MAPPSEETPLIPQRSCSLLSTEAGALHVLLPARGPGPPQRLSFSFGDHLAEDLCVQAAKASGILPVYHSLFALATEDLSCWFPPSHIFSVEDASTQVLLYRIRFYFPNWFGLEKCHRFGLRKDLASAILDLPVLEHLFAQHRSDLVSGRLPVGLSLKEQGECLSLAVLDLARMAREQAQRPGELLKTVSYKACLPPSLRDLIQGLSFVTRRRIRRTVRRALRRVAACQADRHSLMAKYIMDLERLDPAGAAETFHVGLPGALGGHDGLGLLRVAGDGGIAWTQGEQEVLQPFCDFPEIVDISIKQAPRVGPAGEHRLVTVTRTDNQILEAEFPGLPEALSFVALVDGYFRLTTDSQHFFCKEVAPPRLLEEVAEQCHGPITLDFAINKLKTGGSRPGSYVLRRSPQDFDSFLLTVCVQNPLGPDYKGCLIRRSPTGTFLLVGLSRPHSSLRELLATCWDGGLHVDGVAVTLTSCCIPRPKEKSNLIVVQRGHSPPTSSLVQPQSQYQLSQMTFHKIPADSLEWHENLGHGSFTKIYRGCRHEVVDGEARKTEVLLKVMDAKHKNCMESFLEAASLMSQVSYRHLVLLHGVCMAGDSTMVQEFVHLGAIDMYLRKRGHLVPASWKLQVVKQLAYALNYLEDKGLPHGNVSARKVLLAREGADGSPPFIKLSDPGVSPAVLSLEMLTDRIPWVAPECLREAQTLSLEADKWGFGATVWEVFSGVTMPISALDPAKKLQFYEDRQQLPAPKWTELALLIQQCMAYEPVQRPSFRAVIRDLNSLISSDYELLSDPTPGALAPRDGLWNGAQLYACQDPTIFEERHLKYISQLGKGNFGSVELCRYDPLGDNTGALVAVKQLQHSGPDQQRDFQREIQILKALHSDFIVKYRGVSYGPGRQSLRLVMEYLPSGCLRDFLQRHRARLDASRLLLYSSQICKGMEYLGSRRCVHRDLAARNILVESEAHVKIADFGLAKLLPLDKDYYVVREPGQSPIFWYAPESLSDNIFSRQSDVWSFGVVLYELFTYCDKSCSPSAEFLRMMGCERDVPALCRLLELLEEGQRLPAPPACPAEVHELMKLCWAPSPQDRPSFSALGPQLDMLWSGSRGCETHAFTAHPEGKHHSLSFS

[16] = target: TGFBR1 (Homo sapiens, UniProt P36897)
[17] = target: T4, MEK4 (Homo sapiens, UniProt P45985)
T4 construct: gene MAP2K4
T4 sequence (P45985 whole entry): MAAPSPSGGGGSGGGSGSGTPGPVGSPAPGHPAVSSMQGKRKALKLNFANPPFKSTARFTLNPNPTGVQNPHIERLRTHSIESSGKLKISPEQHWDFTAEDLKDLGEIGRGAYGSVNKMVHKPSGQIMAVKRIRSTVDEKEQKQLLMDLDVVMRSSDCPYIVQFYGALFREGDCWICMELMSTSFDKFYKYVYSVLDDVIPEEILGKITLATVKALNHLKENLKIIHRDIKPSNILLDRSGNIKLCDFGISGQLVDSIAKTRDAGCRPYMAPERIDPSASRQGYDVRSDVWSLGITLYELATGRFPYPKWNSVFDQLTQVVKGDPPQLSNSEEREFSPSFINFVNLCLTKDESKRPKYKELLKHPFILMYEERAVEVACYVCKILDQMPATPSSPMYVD

[18] = target: CASK (Homo sapiens, UniProt O14936)
CASK, sequence (O14936 whole entry): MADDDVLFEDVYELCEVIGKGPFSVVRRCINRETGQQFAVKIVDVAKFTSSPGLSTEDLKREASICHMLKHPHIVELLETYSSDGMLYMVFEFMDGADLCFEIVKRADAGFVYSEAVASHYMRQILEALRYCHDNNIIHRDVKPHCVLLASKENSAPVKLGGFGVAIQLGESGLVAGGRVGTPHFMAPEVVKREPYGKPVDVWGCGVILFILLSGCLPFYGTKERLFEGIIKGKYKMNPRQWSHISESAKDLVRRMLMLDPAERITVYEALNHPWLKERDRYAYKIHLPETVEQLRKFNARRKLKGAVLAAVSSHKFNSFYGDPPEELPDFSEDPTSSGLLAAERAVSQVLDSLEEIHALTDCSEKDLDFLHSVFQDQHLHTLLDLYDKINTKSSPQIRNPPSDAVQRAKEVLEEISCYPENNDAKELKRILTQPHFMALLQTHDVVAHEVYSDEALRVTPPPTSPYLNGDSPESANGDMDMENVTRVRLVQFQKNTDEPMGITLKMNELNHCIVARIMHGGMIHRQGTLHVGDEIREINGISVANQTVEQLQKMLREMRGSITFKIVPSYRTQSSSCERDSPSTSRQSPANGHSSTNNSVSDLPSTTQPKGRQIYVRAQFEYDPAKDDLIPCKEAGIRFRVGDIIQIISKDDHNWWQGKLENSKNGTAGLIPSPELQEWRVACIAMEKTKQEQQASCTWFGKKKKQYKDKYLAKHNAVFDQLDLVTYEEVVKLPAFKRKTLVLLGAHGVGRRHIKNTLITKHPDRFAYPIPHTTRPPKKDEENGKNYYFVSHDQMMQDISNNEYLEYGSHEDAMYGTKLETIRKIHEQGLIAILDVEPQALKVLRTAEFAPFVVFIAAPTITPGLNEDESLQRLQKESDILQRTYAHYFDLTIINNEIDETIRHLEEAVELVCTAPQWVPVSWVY

[19] = target: AURKC (Homo sapiens, UniProt Q9UQB9)
[20] = target: SRMS (Homo sapiens, UniProt Q9H3Y6)
[21] = target: MAP3K2 (Homo sapiens, UniProt Q9Y2U5)
[22] = target: MYLK4 (Homo sapiens, UniProt Q86YV6)
[23] = target: PLK1 (Homo sapiens, UniProt P53350)
[24] = target: TLK2 (Homo sapiens, UniProt Q86UE8)
TLK2, sequence (Q86UE8 whole entry): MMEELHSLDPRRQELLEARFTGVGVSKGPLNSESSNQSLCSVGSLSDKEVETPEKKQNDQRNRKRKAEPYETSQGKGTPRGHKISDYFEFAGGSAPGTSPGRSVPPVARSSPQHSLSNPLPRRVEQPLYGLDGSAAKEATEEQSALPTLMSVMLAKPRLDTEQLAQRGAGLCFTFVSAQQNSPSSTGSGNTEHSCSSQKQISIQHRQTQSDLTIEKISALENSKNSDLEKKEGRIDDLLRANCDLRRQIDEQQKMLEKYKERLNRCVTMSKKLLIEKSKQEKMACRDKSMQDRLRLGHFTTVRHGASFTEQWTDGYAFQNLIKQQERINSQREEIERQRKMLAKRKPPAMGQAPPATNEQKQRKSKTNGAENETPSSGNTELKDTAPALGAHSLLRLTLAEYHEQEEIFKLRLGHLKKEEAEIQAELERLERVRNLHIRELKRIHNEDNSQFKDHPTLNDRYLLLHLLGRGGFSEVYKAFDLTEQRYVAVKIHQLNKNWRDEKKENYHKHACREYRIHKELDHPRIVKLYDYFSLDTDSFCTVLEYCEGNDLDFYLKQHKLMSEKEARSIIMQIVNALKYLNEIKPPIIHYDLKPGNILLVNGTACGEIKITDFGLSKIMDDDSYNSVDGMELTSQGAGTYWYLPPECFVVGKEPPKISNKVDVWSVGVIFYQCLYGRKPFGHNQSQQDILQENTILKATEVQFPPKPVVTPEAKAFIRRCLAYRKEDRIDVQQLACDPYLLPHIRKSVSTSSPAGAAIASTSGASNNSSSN

[25] = target: PIM2 (Homo sapiens, UniProt Q9P1W9)
[26] = target: CLK2 (Homo sapiens, UniProt P49760)
CLK2, sequence (P49760 whole entry): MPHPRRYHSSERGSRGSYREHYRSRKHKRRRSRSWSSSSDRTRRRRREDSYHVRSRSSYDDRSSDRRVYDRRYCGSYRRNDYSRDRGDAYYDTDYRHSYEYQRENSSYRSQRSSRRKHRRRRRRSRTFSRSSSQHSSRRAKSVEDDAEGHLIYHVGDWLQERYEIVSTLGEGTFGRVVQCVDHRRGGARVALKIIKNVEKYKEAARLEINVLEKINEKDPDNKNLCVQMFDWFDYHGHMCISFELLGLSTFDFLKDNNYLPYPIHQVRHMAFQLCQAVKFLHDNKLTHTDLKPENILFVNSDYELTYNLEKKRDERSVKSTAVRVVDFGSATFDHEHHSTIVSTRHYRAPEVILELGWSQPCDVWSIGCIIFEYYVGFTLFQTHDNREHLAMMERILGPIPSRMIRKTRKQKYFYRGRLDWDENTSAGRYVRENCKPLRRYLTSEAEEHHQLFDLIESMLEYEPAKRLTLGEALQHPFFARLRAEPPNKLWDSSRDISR

[27] = target: T5, MEK2 (Homo sapiens, UniProt P36507)
T5 construct: gene MAP2K2

[28] = target: T6, MRCKA (Homo sapiens, UniProt Q5VT25)
T6 construct: gene CDC42BPA

[29] = target: AKT1 (Homo sapiens, UniProt P31749)
AKT1, sequence (P31749 whole entry): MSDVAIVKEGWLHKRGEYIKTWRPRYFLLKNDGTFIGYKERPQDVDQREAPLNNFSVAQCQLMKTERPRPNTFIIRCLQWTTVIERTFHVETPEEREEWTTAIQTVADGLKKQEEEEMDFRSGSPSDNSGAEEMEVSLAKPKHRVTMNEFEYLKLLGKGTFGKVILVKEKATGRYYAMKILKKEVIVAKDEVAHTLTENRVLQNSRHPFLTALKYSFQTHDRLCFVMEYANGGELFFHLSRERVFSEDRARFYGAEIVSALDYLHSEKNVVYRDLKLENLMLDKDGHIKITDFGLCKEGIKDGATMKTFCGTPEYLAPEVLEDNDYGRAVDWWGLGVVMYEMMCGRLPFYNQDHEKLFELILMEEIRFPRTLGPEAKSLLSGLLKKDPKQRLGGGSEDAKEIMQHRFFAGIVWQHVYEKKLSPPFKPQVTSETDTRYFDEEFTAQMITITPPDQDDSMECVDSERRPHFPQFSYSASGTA

[30] = target: T7, RSK4(Kin.Dom.2-C-terminal) (Homo sapiens, UniProt Q9UK32)
T7 construct: gene RPS6KA6
T7 sequence (Q9UK32 whole entry): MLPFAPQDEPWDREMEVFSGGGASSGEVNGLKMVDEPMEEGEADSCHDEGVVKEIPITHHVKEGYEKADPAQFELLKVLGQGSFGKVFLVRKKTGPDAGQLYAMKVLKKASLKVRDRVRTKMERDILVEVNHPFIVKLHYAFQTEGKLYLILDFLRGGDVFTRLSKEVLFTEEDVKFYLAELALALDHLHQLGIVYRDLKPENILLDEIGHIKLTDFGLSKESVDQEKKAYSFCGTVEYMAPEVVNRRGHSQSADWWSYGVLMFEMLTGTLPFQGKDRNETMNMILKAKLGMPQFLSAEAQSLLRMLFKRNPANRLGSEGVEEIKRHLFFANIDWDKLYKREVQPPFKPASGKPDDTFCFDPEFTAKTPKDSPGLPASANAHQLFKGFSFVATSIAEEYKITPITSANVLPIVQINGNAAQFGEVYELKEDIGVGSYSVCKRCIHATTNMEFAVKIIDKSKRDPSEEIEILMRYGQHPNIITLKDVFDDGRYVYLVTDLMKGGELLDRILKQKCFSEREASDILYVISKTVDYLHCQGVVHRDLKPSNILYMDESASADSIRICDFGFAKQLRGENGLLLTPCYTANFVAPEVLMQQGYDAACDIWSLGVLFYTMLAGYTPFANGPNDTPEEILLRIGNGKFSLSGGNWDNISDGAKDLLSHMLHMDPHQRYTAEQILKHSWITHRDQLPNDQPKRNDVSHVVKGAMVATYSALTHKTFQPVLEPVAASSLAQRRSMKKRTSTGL

[31] = target: RIPK1 (Homo sapiens, UniProt Q13546)
[32] = target: FLT3(ITD,D835V) (Homo sapiens, UniProt P36888, D835V/ITD)
[33] = target: ERN1 (Homo sapiens, UniProt O75460)
[34] = target: T8, ASK1 (Homo sapiens, UniProt Q99683)
T8 construct: gene MAP3K5

[35] = target: CAMK2G (Homo sapiens, UniProt Q13555)

Which results are given for Cc1cn(-c2cc(NC(=O)c3ccc4c(c3)CN(c3cncnc3)C[C@@H]4C)cc(C(F)(F)F)c2)cn1 [Compound 6j]?
remaining activity at 1 µM [1]: 97%; remaining activity at 1 µM [2]: 0.35%; remaining activity at 1 µM [3]: 100%; remaining activity at 1 µM [4]: 97%; remaining activity at 1 µM [5]: 92%; remaining activity at 1 µM [6]: 72%; remaining activity at 1 µM [7]: 100%; remaining activity at 1 µM [8]: 77%; remaining activity at 1 µM [9]: 63%; remaining activity at 1 µM [10]: 100%; remaining activity at 1 µM [11]: 77%; remaining activity at 1 µM [12]: 71%; remaining activity at 1 µM [13]: 95%; remaining activity at 1 µM [14]: 72%; remaining activity at 1 µM [15]: 100%; remaining activity at 1 µM [16]: 96%; remaining activity at 1 µM [17]: 96%; remaining activity at 1 µM [18]: 100%; remaining activity at 1 µM [19]: 100%; remaining activity at 1 µM [20]: 100%; remaining activity at 1 µM [21]: 92%; remaining activity at 1 µM [22]: 100%; remaining activity at 1 µM [23]: 97%; remaining activity at 1 µM [24]: 98%; remaining activity at 1 µM [25]: 97%; remaining activity at 1 µM [26]: 86%; remaining activity at 1 µM [27]: 100%; remaining activity at 1 µM [28]: 93%; remaining activity at 1 µM [29]: 96%; remaining activity at 1 µM [30]: 74%; remaining activity at 1 µM [31]: 98%; remaining activity at 1 µM [32]: 23%; remaining activity at 1 µM [33]: 100%; remaining activity at 1 µM [34]: 92%; remaining activity at 1 µM [35]: 63%
